Test systems include T-47D breast; HL-60(TB) leukemia; HCT-116 colon; LOX IMVI melanoma; SNB-75 CNS; NCI-H23 lung; NCI/ADR-RES ovarian; UACC-62 melanoma; RXF 393 renal; NCI-H226 lung.
Holding throughout (experiment): NCI anticancer screen, dose series, 48 h

The values that follow come from PubChem BioAssay (NCI).

Molecules are shown by their SMILES.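 In this assay, cells in 96-well plates receive the compound at five concentrations for 48 hours. Endpoints are linearly interpolated between the surrounding concentrations. The concentration for 50% growth inhibition is given as GI50. TGI is the concentration that stops growth completely.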

As for `CCCCCCNCc1cc(C(C)(C)C)cc(CNCCCCCC)c1O`, the GI50 is 1.65 µM in the assay on T-47D breast; 1.68 µM with HL-60(TB) leukemia; 1.7 µM in the assay on HCT-116 colon; 1.58 µM in the assay with LOX IMVI melanoma; 1.44 µM with SNB-75 CNS; 1.71 µM in the assay on NCI-H23 lung. The GI50 in the assay with NCI/ADR-RES ovarian was 1.75 µM; with UACC-62 melanoma, 1.55 µM; in the assay on RXF 393 renal, 1.62 µM; in the assay on NCI-H226 lung, 1.69 µM. Also, the TGI in the assay with T-47D breast stood at 3.29 µM; in the assay with HL-60(TB) leukemia, 3.33 µM; in the assay on HCT-116 colon, 3.07 µM; with LOX IMVI melanoma it was 2.94 µM; in the assay on SNB-75 CNS it was 2.92 µM; with NCI-H23 lung, 3.29 µM. For the same molecule, the TGI in the assay on NCI/ADR-RES ovarian was 3.24 µM; with UACC-62 melanoma it was 2.91 µM; in the assay with RXF 393 renal, 2.99 µM; in the assay with NCI-H226 lung, 3.36 µM.
As to `CC1(C)Cc2c(Br)c(Br)c(Br)c(OCC(O)CN3CCN(c4ccccn4)CC3)c2O1` (stereo not drawn), the GI50 in the assay on T-47D breast is 18.3 µM; with HL-60(TB) leukemia it was 2.8 µM; in the assay with HCT-116 colon it was 5.8 µM; in the assay on LOX IMVI melanoma, 9.22 µM; with SNB-75 CNS, 16.3 µM; in the assay with NCI-H23 lung, 13.4 µM. In addition, the values for the GI50 with NCI/ADR-RES ovarian, in the assay with UACC-62 melanoma and in the assay on NCI-H226 lung were 16.3 µM, 14.1 µM and 15.3 µM, respectively. The TGI in the assay with T-47D breast is more than 100 µM; in the assay with HL-60(TB) leukemia, 11.1 µM; with HCT-116 colon it was 23.5 µM; in the assay on LOX IMVI melanoma, 21.4 µM; in the assay with SNB-75 CNS it was 39 µM; in the assay on NCI-H23 lung, 32 µM. For the same molecule, the TGI in the assay with NCI/ADR-RES ovarian is 42.6 µM; with UACC-62 melanoma it was 28.1 µM; with NCI-H226 lung it was 38.2 µM.
On to `CCN1C(=NCCO)NS(=O)(=O)c2ccccc21`, for which the TGI in the assay on T-47D breast, in the assay with HL-60(TB) leukemia, in the assay on HCT-116 colon, in the assay on LOX IMVI melanoma, in the assay on NCI-H23 lung and in the assay on NCI/ADR-RES ovarian was more than 100 µM in each case. Moreover, the TGI with UACC-62 melanoma, in the assay on RXF 393 renal and with NCI-H226 lung was more than 100 µM in each case.
Take `Cc1cc(Cl)ccc1C(=O)c1ccc2ccccc2c1C(=O)O`: the TGI in the assay on T-47D breast, in the assay with HL-60(TB) leukemia, with HCT-116 colon, with SNB-75 CNS, in the assay on NCI-H23 lung and in the assay with NCI/ADR-RES ovarian was more than 100 µM throughout. Also, the TGI with UACC-62 melanoma, in the assay on RXF 393 renal and in the assay on NCI-H226 lung was more than 100 µM in each case.
As to `CCOC(=O)Nc1cc2ccccc2c(N=Nc2ccccc2)c1O`, the TGI in the assay on T-47D breast, with HL-60(TB) leukemia, in the assay on HCT-116 colon, with SNB-75 CNS, with NCI-H23 lung and in the assay on NCI/ADR-RES ovarian was more than 100 µM in each case. Also, the TGI was more than 100 µM in the assay on UACC-62 melanoma, 69.4 µM in the assay with RXF 393 renal and more than 100 µM in the assay on NCI-H226 lung.
Regarding `CC(=O)Nc1n[n+]([O-])c2cc(C)ccc2[n+]1[O-]`, the TGI in the assay on T-47D breast was 11.4 µM; in the assay on HCT-116 colon, 13.5 µM; in the assay with LOX IMVI melanoma, 11.5 µM; in the assay with SNB-75 CNS it was 12 µM; in the assay with NCI-H23 lung, 9.32 µM; in the assay with NCI/ADR-RES ovarian, more than 44.7 µM. For the same molecule, the TGI came out at 6.04 µM in the assay on UACC-62 melanoma, 22.6 µM in the assay with RXF 393 renal and 27.8 µM in the assay with NCI-H226 lung.
For the molecule `Cl.Fc1c[c-]c(-c2ccccn2)c(F)c1.[Pt].c1ccc([PH+](C[PH+](c2ccccc2)c2ccccc2)c2ccccc2)cc1`, the GI50 in the assay on T-47D breast is 0.135 µM; in the assay with HL-60(TB) leukemia, 0.233 µM; with SNB-75 CNS it was 0.183 µM; with NCI/ADR-RES ovarian, 1.61 µM; in the assay with UACC-62 melanoma, 0.199 µM; in the assay with RXF 393 renal, 0.251 µM. Further, the TGI in the assay with T-47D breast was 1.02 µM; with HL-60(TB) leukemia, 0.67 µM; with SNB-75 CNS, 0.781 µM; with NCI/ADR-RES ovarian, 5.84 µM; in the assay on UACC-62 melanoma it was 0.511 µM; in the assay on RXF 393 renal, 0.741 µM.
With `O=C(O)c1c(Br)c(Br)c(Br)c(Br)c1C1c2ccc(O)cc2Oc2cc(O)ccc21`, the TGI was more than 100 µM in the assay on T-47D breast; 30.1 µM in the assay with HL-60(TB) leukemia; more than 100 µM with HCT-116 colon; more than 100 µM with LOX IMVI melanoma; more than 100 µM in the assay on SNB-75 CNS; more than 100 µM in the assay on NCI/ADR-RES ovarian. Moreover, the TGI in the assay on UACC-62 melanoma, in the assay with RXF 393 renal and with NCI-H226 lung was more than 100 µM in each case.
As to `COc1ccc(-c2c3c(nc4n[nH]c(-c5ccc(Cl)cc5)c24)-c2ccccc2C(=O)C3=O)cc1`, the GI50 in the assay on T-47D breast is 1.03 µM; with HL-60(TB) leukemia, 3.08 µM; with HCT-116 colon it was 1.01 µM; in the assay on SNB-75 CNS, 1.19 µM; in the assay on NCI-H23 lung, 1.64 µM; in the assay on NCI/ADR-RES ovarian, 2.64 µM. The figures for the GI50 with UACC-62 melanoma and with RXF 393 renal were 1.59 µM and 1.5 µM, respectively. The TGI was 9.47 µM in the assay on T-47D breast; 28.1 µM in the assay on HL-60(TB) leukemia; 2.48 µM in the assay on HCT-116 colon; 2.76 µM with SNB-75 CNS; 4.74 µM with NCI-H23 lung; more than 100 µM with NCI/ADR-RES ovarian. The TGI was determined as 3.85 µM in the assay with UACC-62 melanoma and 3.1 µM in the assay with RXF 393 renal.
Turning to `COc1cc2oc3c(c(=O)c2c(O)c1/C=C/C(C)C)C(C=C(C)C)Oc1cc(O)ccc1-3` (stereo not drawn), the TGI was 31 µM with T-47D breast; 56.1 µM in the assay with HL-60(TB) leukemia; 28.1 µM with HCT-116 colon; 27.7 µM with LOX IMVI melanoma; 29.4 µM in the assay with SNB-75 CNS; 30.5 µM in the assay on NCI-H23 lung. Moreover, the TGI was determined as 31.1 µM with NCI/ADR-RES ovarian, 32.3 µM in the assay with UACC-62 melanoma and 32.7 µM in the assay on NCI-H226 lung.
`Cc1[nH]c2cc(F)ccc2c1-c1nc2c3cccnc3c3ncccc3c2[nH]1`: the GI50 is 0.341 µM in the assay on T-47D breast; 0.205 µM in the assay on HL-60(TB) leukemia; 0.164 µM in the assay with HCT-116 colon; 0.0472 µM in the assay on LOX IMVI melanoma; 0.473 µM in the assay with SNB-75 CNS; 0.343 µM with NCI-H23 lung. Further, the GI50 in the assay with NCI/ADR-RES ovarian was 0.55 µM; in the assay on RXF 393 renal it was 0.19 µM; in the assay with NCI-H226 lung, 0.168 µM. For the same molecule, the TGI turned out to be 1.28 µM in the assay with T-47D breast; 0.564 µM in the assay with HL-60(TB) leukemia; 1.5 µM in the assay on HCT-116 colon; 0.697 µM in the assay on LOX IMVI melanoma; 1.84 µM in the assay on SNB-75 CNS; 1.89 µM in the assay with NCI-H23 lung. The TGI worked out at 5.37 µM in the assay with NCI/ADR-RES ovarian, 0.785 µM in the assay on RXF 393 renal and 0.812 µM in the assay on NCI-H226 lung.
